We go through 26 sequences from PMC7579403, “POTN: A Human Leukocyte Antigen-A2 Immunogenic Peptides Screening Model and Its Applications in Tumor Antigens Prediction” (Frontiers in Immunology, 2020).

One assay has as its system T cell response. More on the design: method as in PMID 29720506, PMID 15564450, PMID 18753217, PMID 21883919, PMID 11984506. The conditions noted are these: pairs with only one amino acid different at P3; ref [62]–[66]; cited from earlier work.
Assay [1] deals with CD3+CD8+ T cells from HLA-A2+ healthy donors. The assay is described as follows: ICS assay for immunogenicity: IFN-γ production of CD3+CD8+ T cells from peptide-stimulated PBMCs. It is filed as cell-based, human. The conditions noted are these: for Immunogenicity: response ratio of each peptide in five donors: percentages of IFN-γ+-secreting CD8+ T cells higher than negative control, PBMCs stimulated 10 μg/mL once-weekly 3 weeks. On the procedure:
We determined whether the high-binding affinity peptides elicited a T cell response in peripheral blood samples from five HLA-A2^+ healthy donors. The blood samples were obtained from Henan Red Cross Blood Center (Zhengzhou, China) with the approval of the Institutional Ethics Review Board. All research was performed under the approval of the Ethics Committee of Zhengzhou University. An ICS assay was used to quantify IFN-γ production of CD3^+CD8^+ T cells. Peripheral blood mononuclear cells (PBMCs) were stimulated by each peptide (10 μg/mL) once-weekly for 3 weeks according to our previous work ([59]). On day 21, the induced T cells from the PBMCs were used as effector cells, and T2 cells were incubated with the synthesized peptides (50 μg/mL) for 4 h as the stimulator cells. The effector cells (1 × 10^6) and stimulator cells (1 × 10^6) were co-incubated for 3 h, and brefeldin A (2 μg/mL, Sigma-Aldrich, USA) was added to block the release of produced cytokines for another 5 h at 37°C and 5% CO2. The cells were washed and stained with eFlour 710 labeled anti-human CD3 antibody and APC-labeled anti-human CD8 antibody (eBioscience) for 30 min at 4°C before fixation and permeabilization. Permeabilized cells were intracellularly stained with the PE-labeled anti-human IFN-γ antibody (BioLegend, Inc., USA) for 30 min on ice in the dark. Cells were resuspended in buffer for acquisition and analysis using a flow cytometer (FACSCalibur, Becton Dickinson).
Next, we examined the T cell responses of the 13 synthesized peptides with high binding affinity by detecting the percentages of IFN-γ^+ CD8^+ T cells from five HLA-A2^+ healthy donors. A higher percentage of IFN-γ^+ CD8^+ T cells in the total CD8^+ T cell population than that of the negative control indicated an immunogenic peptide. In donor 1, 12 were immunogenic ( Figure 5B ); in donor 2, eight peptides were immunogenic ( Figure 5C ); in donor 3, 10 peptides were immunogenic ( Figure 5D ); in donor 4, six peptides were immunogenic ( Figure 5E ); and in donor 5, 12 peptides were immunogenic ( Figure 5F ). […] In other words, any of the 13 high-affinity peptides could stimulate a T lymphocyte response in at least one donor ( Figures 5G, H ).

The target of another assay is T1, HLA-A2 molecule (Homo sapiens, UniProt P04439, D140Y/D185E/D98H/E176V/E277Q/G131W/G231S/I119V/I121R/I166T/I218V/L300P/L318F/N151K/N90K/P208A/P217A/Q86G/Q94H/R138H/R169H/T345S).
T1 construct: The T2 cell line (HLA-A2) was supplied by Professor Yuzhang Wu; endogenous in cells; host or cells: T2 cell line (HLA-A2); exogenous human β2-microglobulin from Merck
Description: T2 binding assay (fluorescence index, FI). The conditions noted are these: T2 cells, peptide 50 μg/mL, human β2-microglobulin 3 µg/mL, 37°C 18 h, anti-HLA-A2 BB7.2 PE-cy7, flow cytometry; class by FI. On the procedure: The T2 binding assay was used to determine the binding affinity of the candidate peptides and HLA-A2 molecule by using a previously described protocol ([27]). The T2 cell line (HLA-A2) was supplied by Professor Yuzhang Wu (Third Military Medical University, Chongqing, China). […] The T2 cells were washed twice and incubated with the anti-human HLA-A2-PE-cy7 antibody (BB7.2, eBioscience, USA) at 4°C for 30 min. The mean fluorescence intensity (FI) of each group was analyzed by flow cytometry (FACSCalibur, Becton-Dickinson, USA). Based on the FI, the binding affinity of the candidate peptides toward HLA-A2 molecule was calculated by FI =a−b/b where a is the mean PE-cy7 FI with the peptide and b is the mean PE-cy7 FI without the peptide.

For the sequence “EVKEKHEFL [literature peptide of a P3 pair]”, in the assay on T cell response, the “Immunogenicity (immunogenic / non-immunogenic)” value is recorded as “immunogenic”. With “VLSTAPPQL [CT-X candidate nonamer predicted by POTN, synthesized]”, the “Immunogenicity: response ratio of each peptide in five donors” value (“Immunogenicity: response ratio” for short) in assay [1] was 4/5. Moreover, the Binding entry at HLA-A2 molecule is “++ (FI ≥ 1.5)”. On to “VLSNVLSGL [CT-X candidate nonamer predicted by POTN, synthesized]”, for which, at HLA-A2 molecule, the Binding result is “+ (FI ≥ 0.5 to < 1.5)”. Consider “ILDRANQSV [CT-X candidate nonamer predicted by POTN, synthesized]”, for which, in assay [1], the “Immunogenicity: response ratio” value is listed as 3/5. Besides, at HLA-A2 molecule, the Binding entry is “++ (FI ≥ 1.5)”.

As to “KLSSIIPSA [CT-X candidate nonamer predicted by POTN, synthesized]”, the “T cell response in donors” value in assay [1] (IFN-γ+ CD8+ T cells, five HLA-A2+ healthy donors) is recorded as “only elicited a response in donor 5”. Also, in assay [1], the “Immunogenicity: response ratio” value was 1/5. For the same sequence, the Binding entry at HLA-A2 molecule is “++ (FI ≥ 1.5)”. “VLSAVTPEL [CT-X candidate nonamer predicted by POTN, synthesized]”: the Binding result on HLA-A2 molecule was “+ (FI ≥ 0.5 to < 1.5)”. Take “QLCDVMFYL [literature peptide of a P3 pair]”: the “Immunogenicity (immunogenic / non-immunogenic)” value in the assay on T cell response is recorded as “immunogenic”. With “ALSTVLPGL [CT-X candidate nonamer predicted by POTN, synthesized]”, the “Immunogenicity: response ratio” value in assay [1] was 2/5. For the same sequence, at HLA-A2 molecule, the Binding entry is recorded as “++ (FI ≥ 1.5)”.

As for “FLAKLNNTV [CT-X candidate nonamer predicted by POTN, synthesized; also in training set]”, at HLA-A2 molecule, the Binding entry is on record as “+ (FI ≥ 0.5 to < 1.5)”. “QLRDVMFYL [literature peptide of a P3 pair]”: the “Immunogenicity (immunogenic / non-immunogenic)” value with T cell response is given as “non-immunogenic”. As for “EVREKHEFL [literature peptide of a P3 pair]”, the “Immunogenicity (immunogenic / non-immunogenic)” value with T cell response is listed as “non-immunogenic”. Consider “YLATADMPA [CT-X candidate nonamer predicted by POTN, synthesized]”, for which the “Immunogenicity: response ratio” value in assay [1] was 3/5. Besides, the Binding result on HLA-A2 molecule is given as “++ (FI ≥ 1.5)”.

As for “FLSKLSSII [CT-X candidate nonamer predicted by POTN, synthesized]”, the Binding entry on HLA-A2 molecule is “- (FI < 0.5)”. For the sequence “KMAGELIKI [CT-X candidate nonamer predicted by POTN, synthesized]”, in assay [1], the “Immunogenicity: response ratio” value was 4/5. The Binding entry at HLA-A2 molecule is listed as “++ (FI ≥ 1.5)”. Take “TLDQVLDEV [CT-X candidate nonamer predicted by POTN, synthesized]”: the “Immunogenicity: response ratio” value in assay [1] is recorded as 5/5. For the same sequence, the Binding entry at HLA-A2 molecule is “++ (FI ≥ 1.5)”.

In the case of “LMDVQIPTA [CT-X candidate nonamer predicted by POTN, synthesized]”, the “Immunogenicity: response ratio” value in assay [1] is reported as 5/5. The Binding result at HLA-A2 molecule is recorded as “++ (FI ≥ 1.5)”. For “SIDDLSFYV [CT-X candidate nonamer predicted by POTN, synthesized]”, in that order: 4/5 and “++ (FI ≥ 1.5)”. For “FLAMLKNTV [CT-X candidate nonamer predicted by POTN, synthesized]”, the Binding entry on HLA-A2 molecule is reported as “+ (FI ≥ 0.5 to < 1.5)”. As to “TLDEKVAEL [CT-X candidate nonamer predicted by POTN, synthesized]”, the “Immunogenicity: response ratio” value in assay [1] is reported as 5/5. Moreover, the Binding entry at HLA-A2 molecule was “++ (FI ≥ 1.5)”. Consider “FIDKLVESV [CT-X candidate nonamer predicted by POTN, synthesized]”, for which the “Immunogenicity: response ratio” value in assay [1] is on record as 5/5. Besides, the Binding entry at HLA-A2 molecule is recorded as “++ (FI ≥ 1.5)”.

Turning to “ALDEKVAEL [CT-X candidate nonamer predicted by POTN, synthesized]”, the “Immunogenicity: response ratio” value in assay [1] is given as 4/5. For the same sequence, the Binding entry at HLA-A2 molecule was “++ (FI ≥ 1.5)”. In the case of “KVADLIHFL [CT-X candidate nonamer predicted by POTN, synthesized]”, on HLA-A2 molecule, the Binding entry is given as “+ (FI ≥ 0.5 to < 1.5)”. For “ALSVMGVYV [CT-X candidate nonamer predicted by POTN, synthesized]”, on HLA-A2 molecule, the Binding entry is given as “+ (FI ≥ 0.5 to < 1.5)”. Turning to “AMASASPSV [CT-X candidate nonamer predicted by POTN, synthesized]”, in assay [1], the “Immunogenicity: response ratio” value is on record as 3/5. On HLA-A2 molecule, the Binding result is on record as “++ (FI ≥ 1.5)”. With “KVAKLVHFL [CT-X candidate nonamer predicted by POTN, synthesized]”, the Binding entry at HLA-A2 molecule was “+ (FI ≥ 0.5 to < 1.5)”. Same read-out and setting: the result for “KVAELVHFL [CT-X candidate nonamer predicted by POTN, synthesized]” reads “+ (FI ≥ 0.5 to < 1.5)”.
